Results reported in patent US10590086B2, “Pharmaceutical compound” (IOmet Pharma Ltd., priority 2014, dated 2020).

What was measured:
[1] = molecular target: T1, TDO (Homo sapiens, UniProt P48775); test: hTDO biochemical coupled assay; conditions: 330 μM L-tryptophan; for IC50: 17 minutes, room temperature, read-out: hTDO biochemical assay pIC50 (converted)
[2] = molecular target: T2, IDO (Homo sapiens, UniProt P14902); test: hIDO biochemical coupled assay; conditions: 45 μM L-tryptophan, read-out: hIDO biochemical assay pIC50 (converted)
[3] = molecular target: T2, IDO; test: SKOV3 kynurenine cell-based assay (IDO induced by IFN-γ); design: IDO expression was induced in the SKOV3 cells by the addition of 500 ng/ml IFN-γ; endogenous in cells; host or cells: SKOV3 (human ovarian adenocarcinoma), induced with IFN-γ; conditions: 48 hours, read-out: SKOV3 Kynurenine cell based assay pIC50 (converted)
How it was run: (§1)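 Cellular kynurenine production, TDO via A172 glioblastoma and IDO via IFN-γ-stimulated SKOV3 ovarian adenocarcinoma cells, was quantified after 48 hours' compound treatment in 500 μM L-tryptophan medium, using Erhlich's reagent and absorbance at 490 nm.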

[4] = molecular target: T1, TDO; test: A172 kynurenine cell-based assay; design: This assay utilised cancer cells which expressed either TDO or IDO; endogenous in cells; host or cells: A172 (human glioblastoma); conditions: A172 human glioblastoma cells, 48 hours, read-out: A172 Kynurenine cell based assay pIC50 (converted)
How it was run: as §1

[5] = SKOV3 human ovarian adenocarcinoma cells, 500 ng/ml IFN-γ, 500 μM L-tryptophan

T2 sequence (P14902 whole entry): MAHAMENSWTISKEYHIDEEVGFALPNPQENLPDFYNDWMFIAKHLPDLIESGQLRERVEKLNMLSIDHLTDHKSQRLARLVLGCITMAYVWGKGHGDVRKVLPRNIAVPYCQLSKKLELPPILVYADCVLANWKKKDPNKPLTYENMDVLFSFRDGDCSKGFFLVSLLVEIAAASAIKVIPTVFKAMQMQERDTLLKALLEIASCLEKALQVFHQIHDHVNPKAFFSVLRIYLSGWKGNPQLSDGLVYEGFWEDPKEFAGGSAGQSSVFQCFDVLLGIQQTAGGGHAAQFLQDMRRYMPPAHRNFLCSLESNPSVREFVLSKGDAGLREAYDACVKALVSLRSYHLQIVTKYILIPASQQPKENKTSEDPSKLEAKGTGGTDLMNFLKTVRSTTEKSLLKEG
T1 sequence (P48775 whole entry): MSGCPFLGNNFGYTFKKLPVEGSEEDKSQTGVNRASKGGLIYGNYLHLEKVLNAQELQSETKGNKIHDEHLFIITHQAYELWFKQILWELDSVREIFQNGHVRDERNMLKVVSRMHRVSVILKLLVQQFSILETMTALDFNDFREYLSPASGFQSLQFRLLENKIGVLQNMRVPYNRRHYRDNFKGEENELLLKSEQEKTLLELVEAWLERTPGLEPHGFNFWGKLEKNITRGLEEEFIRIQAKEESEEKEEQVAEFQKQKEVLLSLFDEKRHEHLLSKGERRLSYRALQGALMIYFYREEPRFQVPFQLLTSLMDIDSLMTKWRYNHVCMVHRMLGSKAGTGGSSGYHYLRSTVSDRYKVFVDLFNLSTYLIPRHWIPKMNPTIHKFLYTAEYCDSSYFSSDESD

Compound	IC50 [1]	IC50 ([2]; 17 minutes, room temperature)	IC50 [3, 5]	IC50 ([4]; 500 μM L-tryptophan)	hTDO biochemical assay pIC50 [1]	IC50 [2]	IC50 ([3]; SKOV3 cells, IDO induced by 500 ng/ml IFN-γ)	IC50 [4]
CS(=O)(=O)N1CCC(c2cccc3[nH]ncc23)CC1 [Compound 12]	3.24 to 31.6 µM	> 100 µM	> 100 µM	3.24 to 31.6 µM				
Cn1ncc2c1CN(c1cc(Cl)cc3[nH]ncc13)CC2 [Compound 432]	< 3.16 µM	3.24 to 31.6 µM	> 100 µM	< 3.16 µM				
CS(=O)(=O)N1CCN(c2cc(C(F)(F)F)cc3[nH]ncc23)C2CCCCC21 (centres unmarked) [Compound 340]	> 100 µM	> 100 µM	32.4 to 100 µM	3.24 to 31.6 µM				
CC(=O)N1CCC2(CC1)CCN(c1cc(Cl)cc3[nH]ncc13)CC2 [Compound 352]	< 3.16 µM	3.24 to 31.6 µM	< 3.16 µM	< 3.16 µM				
CC(=O)NCC1CCCN(c2cc(Cl)cc3[nH]ncc23)C1 (centres unmarked) [Compound 283]	< 3.16 µM	> 100 µM	3.24 to 31.6 µM	3.24 to 31.6 µM				
CS(=O)(=O)N1CCN(c2cc(Cl)cc3[nH]ncc23)CC1 [Compound 28, 6-chloro-4-(4-(methylsulfonyl)piperazin-1-yl)-1H-indazole]	< 3.16 µM	3.24 to 31.6 µM	3.24 to 31.6 µM	< 3.16 µM	6.34	22.4 µM	10.5 µM	0.339 µM
O=C1N(c2ccccc2)CNC12CCN(c1cc(Cl)cc3[nH]ncc13)CC2 [Compound 422]	< 3.16 µM	3.24 to 31.6 µM	< 3.16 µM	< 3.16 µM				
OC1(c2cc(Cl)cc3[nH]ncc23)CCCC1 [Compound 320]	< 3.16 µM	3.24 to 31.6 µM	3.24 to 31.6 µM	< 3.16 µM				
CS(=O)(=O)c1ccc(-c2cc(Cl)cc3[nH]ncc23)cc1Cl [Compound 264]	< 3.16 µM	3.24 to 31.6 µM	< 3.16 µM	< 3.16 µM				
CC1(C)CN(c2cccc3[nH]ncc23)CCN1S(C)(=O)=O [Compound 26]	< 3.16 µM	3.24 to 31.6 µM	3.24 to 31.6 µM	< 3.16 µM				
CS(=O)(=O)N1CC2(CN(c3cc(Cl)cc4[nH]ncc34)C2)C1 [Compound 395]	< 3.16 µM	> 100 µM	< 3.16 µM	< 3.16 µM				
CC(C)CC(O)c1cc(Cl)cc2[nH]ncc12 (centres unmarked) [Compound 272]	< 3.16 µM	32.4 to 100 µM	3.24 to 31.6 µM	< 3.16 µM				
c1ccc(CNc2cccc3[nH]ncc23)cc1 [Compound 34]	3.24 to 31.6 µM	> 100 µM	32.4 to 100 µM	32.4 to 100 µM				
O=S(=O)(C1CC1)N1CCN(c2cccc3[nH]ncc23)CC1 [Compound 19]	3.24 to 31.6 µM	> 100 µM	32.4 to 100 µM	3.24 to 31.6 µM				
Cn1ccnc1CN1C(=O)NC2(CCN(c3cc(Cl)cc4[nH]ncc34)CC2)C1=O [Compound 408]	< 3.16 µM	< 3.16 µM	< 3.16 µM	< 3.16 µM				
Cn1ccnc1N1CCN(c2cc(Cl)cc3[nH]ncc23)CC1 [Compound 436]	< 3.16 µM	> 100 µM	> 100 µM	< 3.16 µM				
CNC(=O)CN1CCC(c2cc(Cl)cc3[nH]ncc23)CC1 [Compound 401]	< 3.16 µM	> 100 µM	> 100 µM	< 3.16 µM				
O=C1N[C@H]2CC[C@@H]1CN(c1cc(Br)cc3[nH]ncc13)C2 [Compound 438]	< 3.16 µM	3.24 to 31.6 µM	> 100 µM	< 3.16 µM				

Compound	IC50 [1]	IC50 ([2]; 17 minutes, room temperature)	IC50 [3, 5]	IC50 ([4]; 500 μM L-tryptophan)	hTDO biochemical assay pIC50 [1]	IC50 [2]	IC50 ([3]; SKOV3 cells, IDO induced by 500 ng/ml IFN-γ)	IC50 [4]
Clc1cc(N2CCc3cn[nH]c3C2)c2cn[nH]c2c1 [Compound 417]	< 3.16 µM	> 100 µM	> 100 µM	< 3.16 µM				
OC1(c2cc(Cl)cc3[nH]ncc23)CCC(F)(F)CC1 [Compound 428]	< 3.16 µM	3.24 to 31.6 µM	3.24 to 31.6 µM	< 3.16 µM				
NS(=O)(=O)c1ccc(-c2cc(Cl)cc3[nH]ncc23)cc1 [Compound 269]	< 3.16 µM	> 100 µM	3.24 to 31.6 µM	< 3.16 µM				
CN(C)S(=O)(=O)c1ccc(-c2cc(Cl)cc3[nH]ncc23)cc1 [Compound 277]	< 3.16 µM	> 100 µM	3.24 to 31.6 µM	< 3.16 µM				
CS(=O)(=O)N1CCC(c2cc(N3CCCC3)cc3[nH]ncc23)CC1 [Compound 383]	> 100 µM	> 100 µM	> 100 µM	32.4 to 100 µM				
O[C@@H]1CCCC[C@@H]1c1cc(Cl)cc2[nH]ncc12 [Compound 419]	< 3.16 µM	> 100 µM	> 100 µM	< 3.16 µM				
CC1(C)CN(c2cc(Cl)cc3c(N)noc23)CCN1S(C)(=O)=O [Compound 317]	3.24 to 31.6 µM	> 100 µM	32.4 to 100 µM	> 100 µM				
CN(C)CCN1C(=O)NC2(CCN(c3cc(Cl)cc4[nH]ncc34)CC2)C1=O [Compound 392]	< 3.16 µM	< 3.16 µM	< 3.16 µM	< 3.16 µM				
CC(=O)NCCN1C(=O)NC2(CCN(c3cc(Cl)cc4[nH]ncc34)CC2)C1=O [Compound 412]	< 3.16 µM	< 3.16 µM	> 100 µM	< 3.16 µM				
CC(=O)N(C)c1cc(N2CCN(S(C)(=O)=O)CC2)c2cn[nH]c2c1 [Compound 213]	> 100 µM	> 100 µM	32.4 to 100 µM	32.4 to 100 µM				
CN(C)C(=O)CC1CCN(c2cc(Cl)cc3[nH]ncc23)CC1 [Compound 362]	< 3.16 µM	> 100 µM	3.24 to 31.6 µM	3.24 to 31.6 µM				
CC(=O)N1CC2(C1)CN(c1cc(Cl)cc3[nH]ncc13)C2 [Compound 402]	< 3.16 µM	32.4 to 100 µM	< 3.16 µM	< 3.16 µM				
CC(C)CN1C(=O)NC2(CCN(c3cc(Cl)cc4[nH]ncc34)CC2)C1=O [Compound 388]	< 3.16 µM	< 3.16 µM	< 3.16 µM	< 3.16 µM				
CC1(C)CN(c2cc(Cl)cc3[nH]ncc23)CCN1S(N)(=O)=O [Compound 227]	< 3.16 µM	< 3.16 µM	< 3.16 µM	< 3.16 µM				
CC(=O)Nc1cc(N2CCN(S(C)(=O)=O)C(C)(C)C2)c2cn[nH]c2c1 [Compound 312]	> 100 µM	> 100 µM	> 100 µM	3.24 to 31.6 µM				
O=C1NC2(CCN(c3cc(Cl)cc4[nH]ncc34)CC2)C(=O)N1c1ccccc1 [Compound 456]	< 3.16 µM	< 3.16 µM		< 3.16 µM				
Cc1noc(C)c1S(=O)(=O)Nc1cccc2[nH]ncc12 [Compound 3]	3.24 to 31.6 µM	> 100 µM						
CN(C)S(=O)(=O)Nc1cccc2[nH]ncc12 [Compound 7]	32.4 to 100 µM	> 100 µM						
